Publication PMC4640066 (Nature Communications, 2015)

What was measured:
[1] = target: T1, γ-TuSC (Saccharomyces cerevisiae, UniProt P53378); assay: γ-TuSC-stimulated MT polymerization in vitro; type: biochemical; conditions: same concentration as ineffective on glutamate, paclitaxel and Tau-induced MT formation
T1 construct: made in house; host or cells: HighFive insect cells
T1 sequence (P53378 1-473): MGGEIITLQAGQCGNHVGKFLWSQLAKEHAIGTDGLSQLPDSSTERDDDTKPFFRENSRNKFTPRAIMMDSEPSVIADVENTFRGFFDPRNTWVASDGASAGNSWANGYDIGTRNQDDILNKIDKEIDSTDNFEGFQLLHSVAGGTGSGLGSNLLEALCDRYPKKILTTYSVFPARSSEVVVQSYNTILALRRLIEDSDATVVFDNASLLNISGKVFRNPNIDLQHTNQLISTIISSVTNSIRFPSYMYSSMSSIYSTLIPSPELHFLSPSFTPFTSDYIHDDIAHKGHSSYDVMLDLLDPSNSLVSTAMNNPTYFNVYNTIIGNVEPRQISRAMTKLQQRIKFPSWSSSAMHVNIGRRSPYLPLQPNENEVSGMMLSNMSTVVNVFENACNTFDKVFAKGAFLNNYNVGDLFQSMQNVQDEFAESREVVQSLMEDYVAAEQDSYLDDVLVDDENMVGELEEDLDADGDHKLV
T1 sequence (P38863 1-823 partner): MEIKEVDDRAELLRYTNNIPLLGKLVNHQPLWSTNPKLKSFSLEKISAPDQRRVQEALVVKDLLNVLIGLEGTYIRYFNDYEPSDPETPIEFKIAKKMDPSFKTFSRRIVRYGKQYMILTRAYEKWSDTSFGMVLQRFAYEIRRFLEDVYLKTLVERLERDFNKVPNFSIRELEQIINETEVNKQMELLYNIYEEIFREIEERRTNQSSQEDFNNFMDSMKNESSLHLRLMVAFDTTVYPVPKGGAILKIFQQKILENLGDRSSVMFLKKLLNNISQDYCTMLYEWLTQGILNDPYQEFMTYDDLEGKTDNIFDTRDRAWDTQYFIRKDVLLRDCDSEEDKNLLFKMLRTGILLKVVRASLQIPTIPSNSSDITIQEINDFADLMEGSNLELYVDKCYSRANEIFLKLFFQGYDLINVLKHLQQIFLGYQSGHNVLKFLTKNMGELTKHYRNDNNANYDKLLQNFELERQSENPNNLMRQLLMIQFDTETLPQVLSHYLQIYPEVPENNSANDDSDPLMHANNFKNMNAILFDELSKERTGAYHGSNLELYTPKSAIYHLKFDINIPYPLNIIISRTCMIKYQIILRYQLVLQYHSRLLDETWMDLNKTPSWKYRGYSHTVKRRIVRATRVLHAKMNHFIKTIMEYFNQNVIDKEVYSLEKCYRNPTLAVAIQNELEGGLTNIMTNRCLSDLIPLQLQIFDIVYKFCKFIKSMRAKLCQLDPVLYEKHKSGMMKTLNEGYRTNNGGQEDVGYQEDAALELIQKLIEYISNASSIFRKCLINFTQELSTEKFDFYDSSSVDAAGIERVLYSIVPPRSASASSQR
T1 sequence (P53540 1-846 partner): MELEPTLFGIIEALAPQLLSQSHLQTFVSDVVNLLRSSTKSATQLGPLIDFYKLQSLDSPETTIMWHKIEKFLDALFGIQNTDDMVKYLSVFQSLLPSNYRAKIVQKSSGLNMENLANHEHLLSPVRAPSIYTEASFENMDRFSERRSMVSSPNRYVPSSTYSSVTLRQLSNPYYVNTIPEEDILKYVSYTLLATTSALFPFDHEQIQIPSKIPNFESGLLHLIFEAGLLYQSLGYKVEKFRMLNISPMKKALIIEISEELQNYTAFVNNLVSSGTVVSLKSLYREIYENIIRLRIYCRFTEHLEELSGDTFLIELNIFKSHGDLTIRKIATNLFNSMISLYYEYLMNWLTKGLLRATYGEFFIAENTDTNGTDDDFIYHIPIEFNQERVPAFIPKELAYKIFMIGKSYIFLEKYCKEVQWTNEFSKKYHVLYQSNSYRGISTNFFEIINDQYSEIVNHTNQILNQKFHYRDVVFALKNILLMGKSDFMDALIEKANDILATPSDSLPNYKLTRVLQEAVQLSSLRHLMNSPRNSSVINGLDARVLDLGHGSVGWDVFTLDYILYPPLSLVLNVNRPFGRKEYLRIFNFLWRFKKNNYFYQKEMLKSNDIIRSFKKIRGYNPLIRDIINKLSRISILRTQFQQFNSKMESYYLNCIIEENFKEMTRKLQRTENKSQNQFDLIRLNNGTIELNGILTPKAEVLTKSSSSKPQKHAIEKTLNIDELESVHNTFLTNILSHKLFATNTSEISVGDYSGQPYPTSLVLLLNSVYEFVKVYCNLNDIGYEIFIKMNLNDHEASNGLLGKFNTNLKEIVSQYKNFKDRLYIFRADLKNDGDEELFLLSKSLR
Protocol: For glutamate-stimulated MT polymerization, 1 mg ml^−1 porcine brain α/β-tubulin was mixed with glutamate (final concentration 1 M) and GTP (final concentration 1 mM) in RB buffer on ice. For paclitaxel-stimulated MT polymerization, 1 mg ml^−1 porcine brain α/β-tubulin was mixed with paclitaxel (final concentration 10 μM) and GTP (final concentration 1 mM) in RB buffer on ice. For recombinant Tau protein-stimulated MT polymerization, 1 mg ml^−1 α/β-tubulin purified from porcine brain and Tau protein were mixed with GTP (final concentration 1 mM) in RB buffer on ice. For γ-TuSC-stimulated MT polymerization, γ-TuSC was mixed with GTP (final concentration 1 mM). One of the compounds and α/β-tubulin were then added. Samples were transferred into cuvettes. Tubulin polymerization was monitored using the absorbance at 350 nm at 37 °C using a thermostatic spectrophotometer (Beckman Coulter).

[2] = system: HeLa cells; assay: Analysis of interphase MT network; type: cell-based, human; conditions: 100 μM, 2.5 h
Protocol: HeLa cells were cultured in DMEM containing 10% FBS in a humidified atmosphere containing 5% CO2. After treatment with each compound for 2.5 h (interphase MT network) or 5 h (mitotic spindle), the cells were immediately fixed with cold MeOH (−20 °C). After blocking with PBS containing 0.5% bovine serum albumin, cells were incubated with anti-α-tubulin antibodies (1:500 dilution, Santa Cruz, Cat# sc-32293) to observe interphase cells, or with anti-BubR1 (1:250 dilution, BD Bioscience, Cat# 612502) and anti-α-tubulin (1:250 dilution, MBL, Cat# PM054) antibodies to observe mitotic spindle. After staining with Alexa^488-conjugated anti-mouse IgG (1:2,000 dilution, Invitrogen, Cat#A11001) and Alexa568-conjugated anti-rabbit IgG (1:2000 dilution, Invitrogen, Cat#A11011), cells were washed four times with PBS and mounted with PBS containing 0.1 μg ml^−1 DAPI. MTs and BubR1 signals were observed under a Leica LAS AF 6000 fluorescence microscope (Leica Microsystems) or an LSM 700 laser-scanning confocal microscope (Zeiss).

In the case of COc1cc2c(=O)c(-c3cc(OC)c4c(c3OC)OCO4)coc2cc1OCc1ccccc1 [Gatastatin, O^7-demethylbenzyl AG1], the “Effect on γ-TuSC-stimulated MT polymerization” value [1] is reported as “blocked γ-TuSC-stimulated MT polymerization” and the “Effect on interphase MT network” value [2] is reported as “did not obviously change the appearance of the interphase MT network”.
